{"source": "paper PMC9352670", "about": "(2022)", "assay_in_all_cases": "microscale thermophoresis", "key": {"[1]": {"tested_on": "Dm-reference-based-random-after-selection-3 (DNA, other, HFNAP: side-chain on 5' nucleobase of each coding trinucleotide, positions 19,22,25,...,61 (codon key Figure 1B)) GAAAGCAGGACTGGAGATTGCTCTTGCCCGCCCTGTTGCTATCATCCCCCACCTTAGTACCCCCAGACCGAACTAGAGCTT", "conditions": "5 mM KCl, 1 mM MgCl2, 1 mM CaCl2 added; HBS-P+ buffer, 25 °C"}, "[2]": {"tested_on": "Dm-CCS-4 (DNA, aptamer, HFNAP: side-chain on 5' nucleobase of each coding trinucleotide, positions 19,22,25,...,61 (codon key Figure 1B)) GAAAGCAGGACTGGAGATCGCTGACAGCGATCCCGACTGTGATCTTGCTGCTGCCTCTCGCGCCAGACCGAACTAGAGCTT", "conditions": "5 mM KCl, 1 mM MgCl2, 1 mM CaCl2 added; HBS-P+ buffer, 25 °C"}, "[3]": {"tested_on": "Dm-HS-1 CCG ∆ s.c. (DNA, aptamer, no side-chain at 40 (codon 8 CCG); others as HFNAP: fluorophenyl at 19; allylamine at 22, 25, 37; alcohol at 28, 34, 49; phenol at 31, 46; cyclopropyl at 43, 58; imidazole at 52, 55, 61) GAAAGCAGGACTGGAGATCGATTCTGGTGCTGTTGATCTCCGCCATTGTGCTCCTACCCTTCACAGACCGAACTAGAGCTT", "conditions": "5 mM KCl, 1 mM MgCl2, 1 mM CaCl2 added to HBS-P+; HBS-P+ buffer, 25 °C"}, "[4]": {"tested_on": "Dm-HS-1 TCA ∆ s.c. (DNA, aptamer, no side-chain at 61 (codon 15 TCA); others as HFNAP: fluorophenyl at 19; allylamine at 22, 25, 37; alcohol at 28, 34, 49; phenol at 31, 46; cyclopentyl at 40; cyclopropyl at 43, 58; imidazole at 52, 55) GAAAGCAGGACTGGAGATCGATTCTGGTGCTGTTGATCTCCGCCATTGTGCTCCTACCCTTCACAGACCGAACTAGAGCTT", "conditions": "5 mM KCl, 1 mM MgCl2, 1 mM CaCl2 added to HBS-P+; HBS-P+ buffer, 25 °C"}, "[5]": {"tested_on": "Dm-HS-10 ∆ s.c. (DNA, aptamer, none (no side-chains)) GAAAGCAGGACTGGAGATCCTTCGCATCGGCTTTCTCCCTGTCACCCCTGTTCCCCTTGACCGCAGACCGAACTAGAGCTT", "conditions": "5 mM KCl, 1 mM MgCl2, 1 mM CaCl2 added; HBS-P+ buffer, 25 °C"}, "[6]": {"tested_on": "Dm-HS-3 ∆ s.c. (DNA, aptamer, none (no side-chains)) GAAAGCAGGACTGGAGATCGATTATTGTGATTTTGATCTCCTCCATATCCCCTTCCCTACTCGCAGACCGAACTAGAGCTT", "conditions": "5 mM KCl, 1 mM MgCl2, 1 mM CaCl2 added; HBS-P+ buffer, 25 °C"}, "[7]": {"tested_on": "Dm-HS-1 TGA ∆ s.c. (DNA, aptamer, as Dm-HS-1 but no side-chain at 34: fluorophenyl at 19; allylamine at 22,25,37; alcohol at 28,49; phenol at 31,46; cyclopentyl at 40; cyclopropyl at 43,58; imidazole at 52,55,61) GAAAGCAGGACTGGAGATCGATTCTGGTGCTGTTGATCTCCGCCATTGTGCTCCTACCCTTCACAGACCGAACTAGAGCTT", "conditions": "5 mM KCl, 1 mM MgCl2, 1 mM CaCl2 added; HBS-P+ buffer, 25 °C"}, "[8]": {"tested_on": "Dm-reference-based-random-after-selection-2 (DNA, other, HFNAP: side-chain on 5' nucleobase of each coding trinucleotide, positions 19,22,25,...,61 (codon key Figure 1B)) GAAAGCAGGACTGGAGATTTGTGCCCCTGATGCCCATGGTCCCTCCGCTGCTAACGTTTGCCTCAGACCGAACTAGAGCTT", "conditions": "5 mM KCl, 1 mM MgCl2, 1 mM CaCl2 added; HBS-P+ buffer, 25 °C"}, "[9]": {"tested_on": "Dm-reference-based-random-after-selection-5 (DNA, other, HFNAP: side-chain on 5' nucleobase of each coding trinucleotide, positions 19,22,25,...,61 (codon key Figure 1B)) GAAAGCAGGACTGGAGATCATTTCCTCCCTTATCGATAATCTCCTTTTTTATACTGCTTTTTCCAGACCGAACTAGAGCTT", "conditions": "5 mM KCl, 1 mM MgCl2, 1 mM CaCl2 added; HBS-P+ buffer, 25 °C"}, "[10]": {"tested_on": "Dm-LS-3 (DNA, aptamer, HFNAP: side-chain on 5' nucleobase of each coding trinucleotide, positions 19,22,25,...,61 (codon key Figure 1B)) GAAAGCAGGACTGGAGATTCGCATCGCTACTCCTCCTTGCCGTCCCACCGCCCACTGCTACCTCAGACCGAACTAGAGCTT", "conditions": "5 mM KCl, 1 mM MgCl2, 1 mM CaCl2 added; HBS-P+ buffer, 25 °C"}, "[11]": {"tested_on": "Dm-HS-9 ∆ s.c. (DNA, aptamer, none (no side-chains)) GAAAGCAGGACTGGAGATCGATTATTGTGATTTTGATCTCCCCCATATCCCCTTCCCTACTCGCAGACCGAACTAGAGCTT", "conditions": "5 mM KCl, 1 mM MgCl2, 1 mM CaCl2 added; HBS-P+ buffer, 25 °C"}, "[12]": {"tested_on": "Dm-CCS-2 (DNA, aptamer, HFNAP: side-chain on 5' nucleobase of each coding trinucleotide, positions 19,22,25,...,61 (codon key Figure 1B)) GAAAGCAGGACTGGAGATCGTTTATGGCCACCTCCTTGACAGTTGCCCTGCCTCCAGTCCTCCCAGACCGAACTAGAGCTT", "conditions": "5 mM KCl, 1 mM MgCl2, 1 mM CaCl2 added; HBS-P+ buffer, 25 °C"}, "[13]": {"tested_on": "Dm-HS-8 (DNA, aptamer, HFNAP: side-chain on 5' nucleobase of each coding trinucleotide, positions 19,22,25,...,61 (codon key Figure 1B)) GAAAGCAGGACTGGAGATCGATTGCAGTTACGTCTCCCCTGCCCACCTTATTGCCATTCATAACAGACCGAACTAGAGCTT", "conditions": "5 mM KCl, 1 mM MgCl2, 1 mM CaCl2 added; HBS-P+ buffer, 25 °C"}, "[14]": {"tested_on": "Dm-HS-1 CGA ∆ s.c. (DNA, aptamer, as Dm-HS-1 but no side-chain at 19: allylamine at 22,25,37; alcohol at 28,34,49; phenol at 31,46; cyclopentyl at 40; cyclopropyl at 43,58; imidazole at 52,55,61) GAAAGCAGGACTGGAGATCGATTCTGGTGCTGTTGATCTCCGCCATTGTGCTCCTACCCTTCACAGACCGAACTAGAGCTT", "conditions": "5 mM KCl, 1 mM MgCl2, 1 mM CaCl2 added; HBS-P+ buffer, 25 °C"}, "[15]": {"tested_on": "Dm-CVAE-without-selection-1 (DNA, aptamer, HFNAP: side-chain on 5' nucleobase of each coding trinucleotide, positions 19,22,25,...,61 (codon key Figure 1B)) GAAAGCAGGACTGGAGATCCGCATCGCTTATGCTGATCTTTTCCATATTGCCTTTCCTCCTACCAGACCGAACTAGAGCTT", "conditions": "5 mM KCl, 1 mM MgCl2, 1 mM CaCl2 added; HBS-P+ buffer, 25 °C"}}, "data": [{"smiles": "COc1cccc2c1C(=O)c1c(O)c3c(c(O)c1C2=O)C[C@@](O)(C(C)=O)C[C@@H]3O[C@H]1C[C@H](N)[C@H](O)[C@H](C)O1", "values": [{"measurement": "Kd", "setting": "[1]", "value": "176500 ± 8000", "unit": "nM"}, {"measurement": "Kd", "setting": "[2]", "value": "8.5 ± 2.3", "unit": "nM"}, {"measurement": "Kd", "setting": "[3]", "value": "21.9 ± 2.6", "unit": "nM"}, {"measurement": "Kd", "setting": "[4]", "value": "10.1 ± 1.6", "unit": "nM"}, {"measurement": "Kd ∆ side-chains", "setting": "[5]", "value": "713 ± 28", "unit": "nM"}, {"measurement": "Kd ∆ side-chains", "setting": "[6]", "value": "4450 ± 280", "unit": "nM"}, {"measurement": "Kd", "setting": "[7]", "value": "46.8 ± 4.8", "unit": "nM"}, {"measurement": "Kd", "setting": "[8]", "value": "114400 ± 7400", "unit": "nM"}, {"measurement": "Kd", "setting": "[9]", "value": "119700 ± 9300", "unit": "nM"}, {"measurement": "Kd", "setting": "[10]", "value": "2230 ± 100", "unit": "nM"}, {"measurement": "Kd ∆ side-chains", "setting": "[11]", "value": "5000 ± 140", "unit": "nM"}, {"measurement": "Kd", "setting": "[12]", "value": "16.6 ± 14.0", "unit": "nM"}, {"measurement": "Kd", "setting": "[13]", "value": "32.26 ± 8.9", "unit": "nM"}, {"measurement": "Kd", "setting": "[14]", "value": "231.1 ± 23.6", "unit": "nM"}, {"measurement": "Kd", "setting": "[15]", "value": "13.2 ± 3.2", "unit": "nM"}]}]}
